Laboratory results as given in PMC6811774, “Potent, selective, and subunit‐dependent activation of TRPC5 channels by a xanthine derivative” (British Journal of Pharmacology, 2019).

Assays:
TRPC4:C1 channels = TRPC4:C1 channels (Homo sapiens, UniProt P48995+Q9UBN4); assay: [Ca2+]i measurement in (Tet+) HEK T-REx cells expressing hTRPC4-C1 concatemer; type: cell-based
Procedure: HEK T‐REx™ cell line was transfected with TRPC5‐SYFP2 or TRPC4‐SYFP2 using FuGENE® HD transfection reagent. After 48 hr, cells were put under antibiotic selection using 400 μg·ml^−1 zeocin and 10 μg·ml^−1 blasticidin S (Invivogen, San Diego, California, USA). Medium changes were carried out regularly to remove dead cells. HEK T‐REx cells expressing tetracycline‐inducible human TRPC5, TRPC4–C1, and TRPC5–C1 were created as described previously (Akbulut et al., 2015; Ludlow et al., 2017; Rubaiy, Ludlow, Henrot, et al., 2017). TRPC5–C1 and TRPC4–C1 concatemers allow expression of functional channels with defined 2:2 stoichiometry that display ion permeability and current–voltage relationships distinct from those of homomeric TRPC4:C4 or TRPC5:C5 channels and consistent with those obtained upon co‐expression of TRPC1 with TRPC4 or TRPC5 (Ludlow et al., 2017; Rubaiy, Ludlow, Bon, & Beech, 2017; Rubaiy, Ludlow, Henrot, et al., 2017). Cells were cultured in DMEM‐F12 GlutaMAX (Invitrogen, Paisley, UK) containing 10% FBS (Sigma‐Aldrich, Gillingham, UK), with the addition of blasticidin (10 μg·ml^−1) and zeocin (400 μg·ml^−1) to maintain the stable incorporation of the tetracycline repressor and the channel of interest, respectively. Expression of proteins was induced by the addition of tetracycline (1 μg·ml^−1, 24 hr). Cells were maintained in a humidified incubator with 5% CO2 at 37°C. HEK 293 cells stably expressing tetracycline‐regulated human http://www.guidetopharmacology.org/GRAC/ObjectDisplayForward?objectId=494 were prepared similarly and have also been described previously (McHugh, Flemming, Xu, Perraud, & Beech, 2003). For experiments using transient co‐expression of TRPC1 and TRPC5, HEK cells at 40–60% confluency were transfected with pIRES2‐AcGFP1 and pIRES2‐DsRed‐Express2 plasmids containing human TRPC1 and TRPC5, respectively, using Lipofectamine 3000 (ThermoFisher Scientific, Yokohama, Japan). All experiments using transient expression were performed within 48 hr after transfection. […]

TRPC3 = biological target: T1, TRPC3 (Homo sapiens, UniProt Q13507); assay: [Ca2+]i selectivity assay, WT HEK 293 cells transiently transfected with hTRPC3, OAG activation; type: cell-based; details: 300 nM AM237; 100 μM OAG
T1 construct: expressed in transfected cells; host or cells: WT HEK 293 (transient, jetPRIME)
T1 sequence (Q13507 1-921): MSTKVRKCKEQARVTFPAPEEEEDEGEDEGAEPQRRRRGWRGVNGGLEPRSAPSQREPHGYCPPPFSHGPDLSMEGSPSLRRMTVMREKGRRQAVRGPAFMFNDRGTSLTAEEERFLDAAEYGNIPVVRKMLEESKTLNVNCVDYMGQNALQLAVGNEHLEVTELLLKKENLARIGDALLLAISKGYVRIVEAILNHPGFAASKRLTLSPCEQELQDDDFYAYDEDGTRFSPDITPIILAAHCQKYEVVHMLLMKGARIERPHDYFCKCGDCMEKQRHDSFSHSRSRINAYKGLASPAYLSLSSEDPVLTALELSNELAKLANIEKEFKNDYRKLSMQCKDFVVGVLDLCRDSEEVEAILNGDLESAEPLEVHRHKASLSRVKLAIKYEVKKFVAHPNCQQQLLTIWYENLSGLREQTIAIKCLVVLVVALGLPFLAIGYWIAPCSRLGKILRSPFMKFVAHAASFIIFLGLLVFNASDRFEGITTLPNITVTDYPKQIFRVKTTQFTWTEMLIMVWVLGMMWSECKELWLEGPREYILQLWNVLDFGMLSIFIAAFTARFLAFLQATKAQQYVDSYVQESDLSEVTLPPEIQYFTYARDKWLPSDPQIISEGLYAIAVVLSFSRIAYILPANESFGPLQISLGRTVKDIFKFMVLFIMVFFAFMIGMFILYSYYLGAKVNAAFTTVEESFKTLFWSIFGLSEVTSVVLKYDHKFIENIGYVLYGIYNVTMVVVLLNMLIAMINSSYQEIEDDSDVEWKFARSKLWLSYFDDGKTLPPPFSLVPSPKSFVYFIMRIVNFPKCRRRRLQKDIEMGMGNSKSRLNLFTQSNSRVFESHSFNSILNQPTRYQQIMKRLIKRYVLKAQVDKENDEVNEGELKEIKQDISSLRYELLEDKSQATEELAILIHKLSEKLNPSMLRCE

Sequence of TRPC4:C1 channels (Q9UBN4 whole entry): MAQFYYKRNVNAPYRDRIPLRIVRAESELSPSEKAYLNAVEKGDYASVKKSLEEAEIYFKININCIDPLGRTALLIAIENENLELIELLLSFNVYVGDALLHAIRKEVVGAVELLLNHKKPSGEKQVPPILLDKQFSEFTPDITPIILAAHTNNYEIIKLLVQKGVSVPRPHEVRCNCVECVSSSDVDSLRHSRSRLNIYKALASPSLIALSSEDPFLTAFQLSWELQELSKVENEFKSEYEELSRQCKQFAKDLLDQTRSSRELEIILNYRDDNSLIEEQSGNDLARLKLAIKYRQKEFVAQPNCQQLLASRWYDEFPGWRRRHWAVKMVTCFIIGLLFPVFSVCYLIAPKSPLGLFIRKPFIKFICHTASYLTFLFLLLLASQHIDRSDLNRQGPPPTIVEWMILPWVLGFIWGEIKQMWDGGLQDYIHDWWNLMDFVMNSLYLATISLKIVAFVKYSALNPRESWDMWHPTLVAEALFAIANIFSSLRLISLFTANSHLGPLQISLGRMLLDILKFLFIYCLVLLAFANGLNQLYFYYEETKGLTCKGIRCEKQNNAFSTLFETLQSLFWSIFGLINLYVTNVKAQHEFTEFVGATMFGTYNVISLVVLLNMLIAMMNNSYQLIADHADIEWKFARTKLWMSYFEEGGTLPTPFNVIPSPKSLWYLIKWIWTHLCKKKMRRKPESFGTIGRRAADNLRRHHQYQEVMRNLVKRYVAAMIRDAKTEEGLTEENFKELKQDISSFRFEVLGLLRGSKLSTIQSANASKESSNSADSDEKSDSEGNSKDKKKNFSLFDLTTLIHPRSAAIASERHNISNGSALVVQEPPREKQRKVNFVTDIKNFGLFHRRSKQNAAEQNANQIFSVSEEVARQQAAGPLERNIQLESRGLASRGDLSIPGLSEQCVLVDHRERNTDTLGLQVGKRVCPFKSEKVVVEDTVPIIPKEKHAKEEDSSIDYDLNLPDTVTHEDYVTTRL
Sequence of TRPC4:C1 channels (P48995 whole entry): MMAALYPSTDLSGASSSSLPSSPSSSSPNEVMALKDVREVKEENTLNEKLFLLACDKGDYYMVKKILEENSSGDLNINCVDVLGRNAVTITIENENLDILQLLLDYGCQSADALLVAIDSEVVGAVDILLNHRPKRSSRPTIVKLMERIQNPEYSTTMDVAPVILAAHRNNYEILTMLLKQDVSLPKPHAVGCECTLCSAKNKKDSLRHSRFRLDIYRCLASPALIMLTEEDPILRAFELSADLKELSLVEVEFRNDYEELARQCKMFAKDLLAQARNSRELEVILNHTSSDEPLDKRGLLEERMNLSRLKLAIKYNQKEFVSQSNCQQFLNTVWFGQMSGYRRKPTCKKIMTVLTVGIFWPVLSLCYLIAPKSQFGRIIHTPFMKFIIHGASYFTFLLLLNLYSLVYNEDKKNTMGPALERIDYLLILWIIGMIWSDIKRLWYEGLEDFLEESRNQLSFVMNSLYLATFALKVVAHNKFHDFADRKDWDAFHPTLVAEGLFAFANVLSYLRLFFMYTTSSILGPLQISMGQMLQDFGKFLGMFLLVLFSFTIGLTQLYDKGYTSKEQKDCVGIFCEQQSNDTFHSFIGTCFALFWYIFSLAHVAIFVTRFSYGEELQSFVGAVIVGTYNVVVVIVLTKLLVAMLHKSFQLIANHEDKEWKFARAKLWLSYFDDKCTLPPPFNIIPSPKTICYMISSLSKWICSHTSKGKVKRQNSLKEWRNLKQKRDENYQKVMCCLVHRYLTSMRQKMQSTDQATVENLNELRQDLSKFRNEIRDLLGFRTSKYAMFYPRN

For Cn1c(=O)n(CCCO)c(=O)c2c1nc(Oc1ccc(Cl)c(OC(F)(F)F)c1)n2Cc1ccc(Cl)cc1 [AM237], the “Hill slope, inhibition of EA response” value (TRPC4:C1 channels) was “–1.3”, the “Effect of pretreatment on basal [Ca2+]i” value (TRPC4:C1 channels; 0.03–30 nM AM237) was “did not affect” and the “Activation upon acute administration ([Ca2+]i)” value (TRPC4:C1 channels; 3-300 nM AM237) was “lack of activation”. For the same molecule, the “Activation or inhibition of TRPC3” value (TRPC3) was “no activation or inhibition”.
